Data set [1] deals with T1, Tyrosine-protein kinase BTK (Homo sapiens, UniProt Q06187). Kind of data set: Inhibition of recombinant human full length N-terminal GST-tagged BTK (2 to 659 residues) expressed in baculovirus expression system at 100 uM using FITC-AHA-EEPLYWSFPAKKK-NH2 substrate measured after 90 mins by off-chip mobility shift assay relative to control.
The target in data set [2] is T1, Tyrosine-protein kinase BTK. Briefly: Inhibition of recombinant human full length N-terminal GST-tagged BTK (2 to 659 residues) expressed in baculovirus expression system using FITC-AHA-EEPLYWSFPAKKK-NH2 substrate measured after 90 mins by off-chip mobility shift assay.
Data set [3] shares this target. Kind of data set: Inhibition of BTK in goat anti-human IgM F(ab')2-stimulated human PBMC assessed as suppression of BCR-induced CD69 expression on B cells pretreated for 1 hr followed by blood stimulation measured after overnight incubation by flow cytometry. In kind it is cell-based.
Data set [4] can be described thus: Permeability across apical to basolateral side in human Caco2 cells. The conditions noted are these: Caco-2. On the technique in general: Caco-2 monolayers are a common model of the intestinal barrier.
A short description of data set [5]: Efflux ratio of permeability in human Caco2 cells. The conditions noted are these: Caco-2.
Data set [6] is described as follows: Half life in mouse at 0.5 mg/kg, po. In kind it is ADME, organism-based. The settings on record: in vivo.
Data set [7] in a line: AUC in mouse at 0.5 mg/kg, po. In kind it is ADME, organism-based. The settings on record: in vivo.
For another data set, the target named is Cytochrome P450 2C9 (Homo sapiens, UniProt P11712). Briefly: Inhibition of CYP2C9 (unknown origin). In kind it is ADME.
Sequence of Cytochrome P450 2C9 (P11712 whole entry): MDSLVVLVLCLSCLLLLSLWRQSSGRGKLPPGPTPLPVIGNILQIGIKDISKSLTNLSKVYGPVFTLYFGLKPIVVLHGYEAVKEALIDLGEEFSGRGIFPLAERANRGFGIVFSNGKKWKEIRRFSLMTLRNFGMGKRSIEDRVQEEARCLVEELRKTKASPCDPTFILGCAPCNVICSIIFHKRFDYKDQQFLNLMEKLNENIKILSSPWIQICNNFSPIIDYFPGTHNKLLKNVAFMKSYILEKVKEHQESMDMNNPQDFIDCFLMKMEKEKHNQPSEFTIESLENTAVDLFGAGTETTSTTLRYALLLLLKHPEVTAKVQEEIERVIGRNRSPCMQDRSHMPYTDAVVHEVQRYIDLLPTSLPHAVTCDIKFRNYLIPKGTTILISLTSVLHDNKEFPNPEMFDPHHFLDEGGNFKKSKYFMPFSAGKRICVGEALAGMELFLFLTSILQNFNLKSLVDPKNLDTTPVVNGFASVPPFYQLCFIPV
The next data set concerns the target T2, Cytochrome P450 2B6 (Homo sapiens, UniProt P20813).
T2 sequence (P20813 whole entry): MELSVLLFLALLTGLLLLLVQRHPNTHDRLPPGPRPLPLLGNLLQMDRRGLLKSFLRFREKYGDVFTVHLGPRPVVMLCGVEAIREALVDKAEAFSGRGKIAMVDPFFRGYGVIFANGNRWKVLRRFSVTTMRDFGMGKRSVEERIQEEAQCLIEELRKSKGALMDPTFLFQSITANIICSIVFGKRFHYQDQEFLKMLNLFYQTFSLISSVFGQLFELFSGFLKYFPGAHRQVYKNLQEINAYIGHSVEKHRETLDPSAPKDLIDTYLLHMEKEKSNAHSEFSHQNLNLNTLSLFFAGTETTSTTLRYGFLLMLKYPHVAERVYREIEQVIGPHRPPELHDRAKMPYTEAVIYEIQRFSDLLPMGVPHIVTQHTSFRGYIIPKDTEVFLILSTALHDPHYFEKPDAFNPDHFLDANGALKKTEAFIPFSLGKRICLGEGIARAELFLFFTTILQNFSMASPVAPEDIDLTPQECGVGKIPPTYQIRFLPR
Briefly: Inhibition of CYP2B6 (unknown origin). In kind it is ADME.

The target in a further data set is Cytochrome P450 2C19 (Homo sapiens, UniProt P33261). Briefly: Inhibition of CYP2C19 (unknown origin). In kind it is ADME.
Sequence of Cytochrome P450 2C19 (P33261 whole entry): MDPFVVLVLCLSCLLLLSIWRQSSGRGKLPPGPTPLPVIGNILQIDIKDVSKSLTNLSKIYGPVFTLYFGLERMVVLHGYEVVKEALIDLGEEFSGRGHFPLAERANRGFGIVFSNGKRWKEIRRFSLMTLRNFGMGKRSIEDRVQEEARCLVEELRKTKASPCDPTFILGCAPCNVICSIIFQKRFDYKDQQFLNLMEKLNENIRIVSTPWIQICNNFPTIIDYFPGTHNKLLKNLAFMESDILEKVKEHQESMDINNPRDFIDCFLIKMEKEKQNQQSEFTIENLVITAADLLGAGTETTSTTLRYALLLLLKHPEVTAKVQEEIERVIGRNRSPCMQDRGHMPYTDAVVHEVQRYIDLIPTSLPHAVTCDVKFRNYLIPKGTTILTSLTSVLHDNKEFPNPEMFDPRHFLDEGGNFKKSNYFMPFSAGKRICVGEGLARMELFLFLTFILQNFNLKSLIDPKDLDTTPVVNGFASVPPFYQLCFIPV
The target in another data set is T3, Cytochrome P450 2C8 (Homo sapiens, UniProt P10632).
T3 sequence (P10632 whole entry): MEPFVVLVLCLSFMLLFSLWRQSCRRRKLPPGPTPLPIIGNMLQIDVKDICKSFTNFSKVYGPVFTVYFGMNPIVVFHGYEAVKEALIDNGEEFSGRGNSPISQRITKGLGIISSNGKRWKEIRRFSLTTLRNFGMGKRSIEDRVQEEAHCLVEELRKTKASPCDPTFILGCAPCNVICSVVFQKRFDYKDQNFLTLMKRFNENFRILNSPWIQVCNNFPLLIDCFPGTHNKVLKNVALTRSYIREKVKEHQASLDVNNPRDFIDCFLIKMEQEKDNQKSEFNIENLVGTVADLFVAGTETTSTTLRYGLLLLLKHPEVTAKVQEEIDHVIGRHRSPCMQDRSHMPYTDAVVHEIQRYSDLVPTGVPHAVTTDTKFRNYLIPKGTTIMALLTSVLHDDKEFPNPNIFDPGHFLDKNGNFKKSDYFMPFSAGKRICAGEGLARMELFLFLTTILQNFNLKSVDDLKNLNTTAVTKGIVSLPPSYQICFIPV
Briefly: Inhibition of CYP2C8 (unknown origin). In kind it is ADME.

For the next data set, the target named is Cytochrome P450 3A4 (Homo sapiens, UniProt P08684). Briefly: Inhibition of CYP3A4 (unknown origin). In kind it is ADME.
Sequence of Cytochrome P450 3A4 (P08684 whole entry): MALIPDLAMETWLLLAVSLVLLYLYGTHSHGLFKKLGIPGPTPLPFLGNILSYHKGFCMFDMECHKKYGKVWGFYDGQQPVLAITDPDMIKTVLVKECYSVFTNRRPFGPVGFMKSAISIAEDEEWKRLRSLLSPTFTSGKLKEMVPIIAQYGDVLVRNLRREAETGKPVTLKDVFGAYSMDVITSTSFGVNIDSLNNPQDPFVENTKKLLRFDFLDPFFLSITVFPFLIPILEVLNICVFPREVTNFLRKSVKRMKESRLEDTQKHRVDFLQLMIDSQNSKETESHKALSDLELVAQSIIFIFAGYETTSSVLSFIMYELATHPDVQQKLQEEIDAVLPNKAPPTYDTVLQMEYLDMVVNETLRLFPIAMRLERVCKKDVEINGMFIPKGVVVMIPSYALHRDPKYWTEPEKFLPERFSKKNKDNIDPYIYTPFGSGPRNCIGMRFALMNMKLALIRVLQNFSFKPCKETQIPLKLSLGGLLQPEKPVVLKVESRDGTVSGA

Where only a bound is given, the exact number is not on record here.

T1 sequence (Q06187 whole entry, the tested form may be a part): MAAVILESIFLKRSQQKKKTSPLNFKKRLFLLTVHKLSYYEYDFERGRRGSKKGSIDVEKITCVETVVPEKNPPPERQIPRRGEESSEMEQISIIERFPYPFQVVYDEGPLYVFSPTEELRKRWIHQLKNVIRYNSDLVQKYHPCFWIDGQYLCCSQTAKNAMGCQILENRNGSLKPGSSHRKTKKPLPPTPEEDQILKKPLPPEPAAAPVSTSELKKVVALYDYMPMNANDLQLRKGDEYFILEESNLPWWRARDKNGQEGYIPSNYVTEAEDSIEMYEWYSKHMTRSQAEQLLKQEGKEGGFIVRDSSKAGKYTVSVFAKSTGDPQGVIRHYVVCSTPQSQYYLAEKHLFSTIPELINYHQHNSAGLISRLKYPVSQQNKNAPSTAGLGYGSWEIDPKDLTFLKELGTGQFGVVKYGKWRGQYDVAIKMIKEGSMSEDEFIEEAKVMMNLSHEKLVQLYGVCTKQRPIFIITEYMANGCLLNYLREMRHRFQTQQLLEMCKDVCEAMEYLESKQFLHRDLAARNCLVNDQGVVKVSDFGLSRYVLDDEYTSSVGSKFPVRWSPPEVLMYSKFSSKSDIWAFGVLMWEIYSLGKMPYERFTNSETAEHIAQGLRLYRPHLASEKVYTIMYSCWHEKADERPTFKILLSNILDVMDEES

Turning to `NC(=O)c1ccc(NC2CCCCC2)nc1`, in [1], the inhibition (commonly the relative decrease from the control value, in per cent) amounted to 71%. The IC50 (as a rule, the concentration at which inhibition is half-maximal) in [2] was > 6000 nM.
Take `C=CC(=O)N[C@@H]1CCN(c2ncc(C(N)=O)c(N)n2)C1`: the IC50 in data set [2] amounted to 500 nM.
The same measure, in the same setting: in the case of `NC(=O)c1ccc(N2CC[C@H](N)C2)nc1Nc1ccc(C(=O)N2CCOCC2)cc1` it was 1600 nM.
Turning to `C=CC(=O)N[C@@H]1CN(c2ccc(C(N)=O)c(Nc3ccc(CCN4CCCC4)cc3)n2)CC12CC2`, the IC50 in data set [2] worked out at 0.09 nM; in data set [3] it was 4.9 nM. Moreover, in data set [4], the apical-to-basolateral permeability (Papp A→B) (as a rule, how fast a substance crosses the layer from the apical side) turned out to be 0.2 nm/s. Further, in data set [5], the efflux ratio (usually the permeability from basolateral to apical divided by that in the opposite direction, in the common usage) is 822.
For the compound `C=CC(=O)N[C@H]1CCN(c2ncc(C(N)=O)c(Nc3ccc(C(=O)N4CCOCC4)cc3)n2)C1`, the IC50 in data set [2] was found to be 0.5 nM.
Still for that read-out and setting: in the case of `C=CC(=O)N[C@H]1CCN(c2ccc(C(N)=O)c(Nc3ccc(C(=O)N4CCOCC4)cc3)n2)C1` it was 1.5 nM.
For the compound `C=CC(=O)N[C@H]1CCN(c2ccc(C(N)=O)c(Nc3ccc(N4C[C@@H](C)O[C@@H](C)C4)cc3)n2)C1`, the IC50 in data set [2] was determined as 0.6 nM; in data set [3] it was 6.1 nM.
On to `C=CC(=O)N[C@H]1CCN(c2ncc(C(N)=O)c(N)n2)C1`, for which, in data set [2], the concentration for half-maximal inhibition (IC50) was determined as 180 nM.
As to `C=CC(=O)N(C)[C@H]1CCN(c2ccc(C(N)=O)c(Nc3ccc(CCN4CCCC4)cc3)n2)C1`, the results for the IC50 in data set [2] and in data set [3] were 1.3 nM and 41 nM, respectively. The compound further had a Papp A→B in data set [4] of 0.7 nm/s. In addition, the efflux ratio in data set [5] came to 266.
In the case of `C=CC(=O)N[C@H]1CCN(c2ccc(C(N)=O)c(Nc3ccc(CCN4CCCC4)cc3)n2)C1`, the IC50 in data set [2] is 1.9 nM; in data set [3] it was 7 nM.
Taken in the same sequence, the figures for `C=CC(=O)N1CCN(c2ccc(C(N)=O)c(Nc3ccc(CCN4CCCC4)cc3)n2)CC1` were 0.3 nM and 4.3 nM.
Taken in the same sequence, the figures for `C=CC(=O)N[C@H]1CCN(c2ncc(C(N)=O)c(Nc3ccc(C(=O)N4CC(C)OC(C)C4)cc3)n2)C1` (some centres undefined) were 1.1 nM and 44 nM.
Regarding `C=CC(=O)N[C@H]1CCN(c2ccc(C(N)=O)c(NC3CCCCC3)n2)C1`, the IC50 in data set [2] is > 6000 nM.
With `C=CC(=O)N1C[C@H]2C[C@@H]1CN2c1ccc(C(N)=O)c(Nc2ccc(C)nc2)n1`, the IC50 was 0.1 nM in data set [2] and 1.4 nM in data set [3].
As for `C=CC(=O)N[C@@H]1CCN(c2ccc(C(N)=O)c(Nc3ccc(C(=O)N4CCOCC4)cc3)n2)C1`, the concentration for half-maximal inhibition (IC50) in data set [2] worked out at 16.2 nM.
As to `C=CC(=O)N1CCC[C@@H](n2nc(-c3ccc(Oc4ccccc4)cc3)c3c(N)ncnc32)C1` [IBRUTINIB], in [6], the half-life (in general, how long it takes for the measured level to halve) was 30 min. The area under the curve (AUC) – broadly, the area under the concentration-time curve, a measure of exposure – in [7] amounted to 0.026 µg·h/mL. The INH stood at 8.5 µM at Cytochrome P450 2C9; 11.1 µM at Cytochrome P450 2B6; 19 µM on Cytochrome P450 2C19; 7.9 µM at Cytochrome P450 2C8; 11 µM at Cytochrome P450 3A4.
In the case of `C=CC(=O)N[C@H]1CCN(c2nc(Nc3ccc(N4C[C@@H](C)O[C@@H](C)C4)cc3)c(C(N)=O)cc2F)C1`, the half-maximal inhibitory concentration (IC50) stood at 1.6 nM in data set [2] and 14 nM in data set [3].
On to `C=CC(=O)N[C@H]1CCCN(c2ccc(C(N)=O)c(Nc3ccc(C(=O)N4CCOCC4)cc3)n2)C1`, for which, in data set [2], the IC50 turned out to be 16 nM.
Consider `C=CC(=O)N[C@H]1CCN(c2ccc(C(N)=O)c(Nc3ccc(Oc4ccccc4)cc3)n2)C1`, for which, in [2], the IC50 is 11 nM.
Still for that read-out and setting: to `C=CC(=O)N[C@H]1CCN(c2ncc(C(N)=O)c(Nc3ccc(F)cc3)n2)C1` belongs 8 nM.

The values are drawn from ChEMBL document CHEMBL4261605, “Discovery of a novel series of pyridine and pyrimidine carboxamides as potent and selective covalent inhibitors of Btk” (Bioorg Med Chem Lett, 2018).
